Laboratory results taken from US9580416B2, “Inhibitors of Bruton's tyrosine kinase” (PHARMACYCLICS LLC, priority 2014, dated 2017).
pIC50: −log10 of the molar value.

Columns and labels:
Assay type in all cases: biochemical
Btk = Btk (Homo sapiens, UniProt Q06187); assay: Btk kinase activity, TR-FRET assay; conditions: read-out: Btk (IC50)
How it was run: (§1)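 Enzyme (Btk 0.5 nM; Lck 6 nM) reacted 1 h with inhibitor, ATP at Km and biotin-peptide substrate in pH 7.4 buffer, 10% DMSO. Phosphopeptide detected by Eu-p-Tyr100 antibody plus streptavidin-APC (665/615 nm). IC50 calculated from fitted Ki(app) via ATP/Km correction plus half total enzyme.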

Lck = Lck (Homo sapiens, UniProt P06239); assay: Lck kinase activity, TR-FRET assay; conditions: read-out: LCK (IC50)
How it was run: as §1

EGFR = EGFR (Homo sapiens, UniProt P00533); assay: Inhibition of a panel of kinases, in vitro HotSpot kinase assay: EGFR
Protocol: (§2) The degree of inhibition of a panel of kinases is determined using the in vitro HotSpot kinase assay (purified enzymes, ^33P-ATP, an appropriate substrate and 1 uM ATP).

JAK3 = molecular target: T1, JAK3 (Homo sapiens, UniProt P52333); assay: Inhibition of a panel of kinases, in vitro HotSpot kinase assay: JAK3
T1 sequence (P52333 1-1124): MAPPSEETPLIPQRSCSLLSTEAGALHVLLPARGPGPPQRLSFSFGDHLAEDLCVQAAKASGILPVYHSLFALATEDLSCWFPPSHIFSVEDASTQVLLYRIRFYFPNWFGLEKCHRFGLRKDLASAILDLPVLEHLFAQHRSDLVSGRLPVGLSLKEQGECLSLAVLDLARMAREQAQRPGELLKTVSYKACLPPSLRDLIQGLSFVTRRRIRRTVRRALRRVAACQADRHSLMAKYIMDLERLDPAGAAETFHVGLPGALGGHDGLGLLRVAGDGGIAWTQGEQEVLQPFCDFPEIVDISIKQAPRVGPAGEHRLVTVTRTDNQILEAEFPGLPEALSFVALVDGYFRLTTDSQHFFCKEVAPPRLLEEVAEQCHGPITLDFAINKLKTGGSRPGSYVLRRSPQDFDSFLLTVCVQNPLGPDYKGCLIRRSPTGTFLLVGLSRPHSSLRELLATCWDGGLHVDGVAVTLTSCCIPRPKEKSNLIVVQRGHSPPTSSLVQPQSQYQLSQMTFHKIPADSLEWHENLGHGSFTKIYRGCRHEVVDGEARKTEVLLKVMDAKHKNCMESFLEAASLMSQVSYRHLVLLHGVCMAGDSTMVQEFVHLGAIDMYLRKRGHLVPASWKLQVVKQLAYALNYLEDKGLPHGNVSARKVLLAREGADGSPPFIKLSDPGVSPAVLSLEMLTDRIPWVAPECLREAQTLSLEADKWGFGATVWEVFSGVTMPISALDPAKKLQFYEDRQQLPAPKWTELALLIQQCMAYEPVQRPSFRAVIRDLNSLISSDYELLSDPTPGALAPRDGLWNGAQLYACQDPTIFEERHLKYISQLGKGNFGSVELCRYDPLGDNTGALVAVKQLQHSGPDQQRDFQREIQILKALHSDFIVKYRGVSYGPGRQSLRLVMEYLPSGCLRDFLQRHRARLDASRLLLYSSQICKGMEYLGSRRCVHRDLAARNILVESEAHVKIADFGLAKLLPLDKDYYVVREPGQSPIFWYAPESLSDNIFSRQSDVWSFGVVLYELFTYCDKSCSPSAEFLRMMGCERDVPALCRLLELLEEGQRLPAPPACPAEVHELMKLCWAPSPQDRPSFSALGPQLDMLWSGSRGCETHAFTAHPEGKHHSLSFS
Protocol: as §2

Sequence of Lck (P06239 whole entry, species assumed): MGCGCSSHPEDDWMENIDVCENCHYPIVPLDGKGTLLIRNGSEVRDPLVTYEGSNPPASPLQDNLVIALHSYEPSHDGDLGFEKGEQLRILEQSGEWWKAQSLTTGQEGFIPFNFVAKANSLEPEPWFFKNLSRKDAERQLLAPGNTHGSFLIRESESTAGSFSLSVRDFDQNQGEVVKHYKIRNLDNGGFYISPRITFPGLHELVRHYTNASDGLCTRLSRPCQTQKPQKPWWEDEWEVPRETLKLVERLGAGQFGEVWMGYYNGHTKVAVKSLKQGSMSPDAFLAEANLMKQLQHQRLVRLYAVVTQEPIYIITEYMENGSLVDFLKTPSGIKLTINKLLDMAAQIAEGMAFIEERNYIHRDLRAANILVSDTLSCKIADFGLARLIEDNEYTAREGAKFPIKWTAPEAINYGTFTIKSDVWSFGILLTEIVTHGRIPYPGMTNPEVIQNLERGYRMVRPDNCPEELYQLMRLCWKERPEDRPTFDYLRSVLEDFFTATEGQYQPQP
Sequence of Btk (Q06187 whole entry): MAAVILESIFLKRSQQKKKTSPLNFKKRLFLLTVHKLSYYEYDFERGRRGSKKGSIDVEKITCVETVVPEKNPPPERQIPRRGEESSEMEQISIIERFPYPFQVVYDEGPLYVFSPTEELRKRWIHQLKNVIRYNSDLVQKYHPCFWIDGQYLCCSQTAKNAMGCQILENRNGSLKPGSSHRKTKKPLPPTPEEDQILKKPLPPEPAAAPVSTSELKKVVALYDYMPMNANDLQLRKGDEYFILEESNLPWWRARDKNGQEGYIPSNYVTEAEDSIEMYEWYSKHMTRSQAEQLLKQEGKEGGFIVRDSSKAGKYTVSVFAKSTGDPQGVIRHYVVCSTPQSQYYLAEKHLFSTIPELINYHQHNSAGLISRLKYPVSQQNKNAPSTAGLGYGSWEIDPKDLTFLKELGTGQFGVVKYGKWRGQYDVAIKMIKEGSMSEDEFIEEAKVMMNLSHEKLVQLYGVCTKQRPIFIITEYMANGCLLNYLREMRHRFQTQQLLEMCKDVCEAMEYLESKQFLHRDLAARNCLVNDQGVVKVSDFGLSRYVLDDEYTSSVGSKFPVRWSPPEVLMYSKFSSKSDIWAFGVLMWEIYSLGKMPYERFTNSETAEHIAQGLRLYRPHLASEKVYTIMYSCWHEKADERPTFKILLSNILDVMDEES
Sequence of EGFR (P00533 25-1210): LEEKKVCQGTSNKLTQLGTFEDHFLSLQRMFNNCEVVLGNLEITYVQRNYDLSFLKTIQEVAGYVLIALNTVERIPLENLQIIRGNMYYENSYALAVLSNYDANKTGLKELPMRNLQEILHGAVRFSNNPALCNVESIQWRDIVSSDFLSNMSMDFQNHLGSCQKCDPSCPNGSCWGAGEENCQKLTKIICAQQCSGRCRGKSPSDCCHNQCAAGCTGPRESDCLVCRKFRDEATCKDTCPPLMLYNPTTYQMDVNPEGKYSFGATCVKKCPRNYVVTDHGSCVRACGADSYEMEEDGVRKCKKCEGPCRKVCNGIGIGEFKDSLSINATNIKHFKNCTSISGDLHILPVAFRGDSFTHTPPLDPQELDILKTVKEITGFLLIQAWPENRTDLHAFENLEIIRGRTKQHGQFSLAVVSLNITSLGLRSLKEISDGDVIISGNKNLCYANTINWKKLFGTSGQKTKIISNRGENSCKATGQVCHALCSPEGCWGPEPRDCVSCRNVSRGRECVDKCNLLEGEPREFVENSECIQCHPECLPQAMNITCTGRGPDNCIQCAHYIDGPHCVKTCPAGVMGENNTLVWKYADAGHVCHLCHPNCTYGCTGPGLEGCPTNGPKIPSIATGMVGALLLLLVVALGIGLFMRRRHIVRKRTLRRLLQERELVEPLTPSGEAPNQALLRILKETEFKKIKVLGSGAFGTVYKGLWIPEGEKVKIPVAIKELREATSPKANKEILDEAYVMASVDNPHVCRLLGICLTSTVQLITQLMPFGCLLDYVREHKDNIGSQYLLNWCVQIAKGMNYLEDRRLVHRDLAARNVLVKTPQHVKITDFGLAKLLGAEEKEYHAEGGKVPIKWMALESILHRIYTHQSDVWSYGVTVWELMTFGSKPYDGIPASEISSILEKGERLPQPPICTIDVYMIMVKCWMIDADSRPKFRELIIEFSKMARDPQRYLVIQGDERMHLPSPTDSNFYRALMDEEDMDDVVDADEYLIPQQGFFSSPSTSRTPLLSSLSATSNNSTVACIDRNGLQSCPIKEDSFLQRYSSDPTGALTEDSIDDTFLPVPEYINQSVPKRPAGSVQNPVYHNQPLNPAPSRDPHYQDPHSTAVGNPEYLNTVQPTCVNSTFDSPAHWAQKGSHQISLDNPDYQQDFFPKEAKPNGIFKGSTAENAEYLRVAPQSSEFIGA

Compound	pIC50 (Btk)	pIC50 (Lck)	pIC50 (EGFR)	pIC50 (JAK3)
CCNC(=O)N1CCC[C@@H](Nc2n[nH]c3nccc(Oc4ccc(-c5nc6ccccc6[nH]5)cc4)c23)C1 [compound 224, (3R)-3-({4-[4-(1H-1,3-benzodiazol-2-yl)phenoxy]-1H-pyrazolo[3,4-b]pyridin-3-yl}amino)-N-ethylpiperidine-1-carboxamide]	5.00 to 6.00	5.00 to 6.00	< 5.00	< 5.00
CCOC(=O)N1CCC[C@@H](Nc2n[nH]c3nccc(Oc4ccc(C(=O)Nc5cc(C)ccn5)cc4)c23)C1 [compound 108, ethyl (3R)-3-[(4-{4-[(4-methylpyridin-2-yl)carbamoyl]phenoxy}-1H-pyrazolo[3,4-b]pyridin-3-yl)amino]piperidine-1-carboxalate]	> 7.00	6.00 to 7.00	5.00 to 6.00	< 5.00
C=CC(=O)N1CCC[C@@H](Nc2n[nH]c3nccc(Oc4ccc(C(=O)Nc5nnc(C)s5)cc4)c23)C1 [compound 187]	6.00 to 7.00	< 5.00	6.00 to 7.00	> 7.00
CC#CC(=O)N1CCC[C@@H](Nc2n[nH]c3nccc(Oc4ccc(C(=O)Nc5ncc(CC)s5)cc4)c23)C1 [compound 177]	> 7.00	6.00 to 7.00	5.00 to 6.00	5.00 to 6.00
C=CC(=O)N1CCC[C@@H](Nc2n[nH]c3nccc(Oc4ccc(NC(=O)Nc5cc(C(F)(F)F)ccn5)cc4)c23)C1 [compound 201, 1-{4-[(3-{[(3R)-1-(prop-2-enoyl)piperidin-3-yl]amino}-1H-pyrazolo[3,4-b]pyridin-4-yl)oxy]phenyl}-3-[4-(trifluoromethyl)pyridin-2-yl]urea]	> 7.00	> 7.00	> 7.00	> 7.00
CCNC(=O)N[C@H]1CCCN(c2n[nH]c3nccc(Oc4ccc(C(=O)Nc5cc(C(F)(F)F)ccn5)cc4)c23)C1 [compound 234, 4-({3-[(3S)-3-[(ethylcarbamoyl)amino]piperidin-1-yl]-1H-pyrazolo[3,4-b]pyridin-4-yl}oxy)-N-[4-(trifluoromethyl)pyridin-2-yl]benzamide]	6.00 to 7.00	< 5.00	< 5.00	< 5.00
C=CC(=O)N1CCC[C@@H](Nc2n[nH]c3nccc(Oc4ccc(C(=O)Nc5nc(C)cs5)cc4)c23)C1 [compound 143]	> 7.00	5.00 to 6.00	5.00 to 6.00	> 7.00
Cc1ccnc(NC(=O)c2ccc(Oc3ccnc4[nH]nc(N[C@@H]5CCCN(C(=O)[C@@H]6CCCO6)C5)c34)cc2)c1 (single isomer, unassigned) [compound 94]	> 7.00	6.00 to 7.00	5.00 to 6.00	< 5.00
Cc1ccnc(NC(=O)c2ccc(Oc3ccnc4[nH]nc(N[C@@H]5CCCN(C(=O)C#CCO)C5)c34)cc2)c1 [compound 282, (R)-4-(3-(1-(4-hydroxybut-2-ynoyl)piperidin-3-ylamino)-1H-pyrazolo[3,4-b]pyridin-4-yloxy)-N-(4-methylpyridin-2-yl)benzamide]	> 7.00	6.00 to 7.00	6.00 to 7.00	6.00 to 7.00
CN(C)CCCC(=O)N1CCC[C@@H](Nc2n[nH]c3nccc(Oc4ccc(C(=O)Nc5nc6ccccc6s5)cc4)c23)C1 [compound 172]	> 7.00	> 7.00	6.00 to 7.00	> 7.00
Cc1ccnc(NC(=O)c2ccc(Oc3ccnc4[nH]nc(N[C@@H]5CCCN(C(=O)C(=O)N(C)C)C5)c34)cc2)c1 [compound 98, 4-[(3-{[(3R)-1-[(dimethylcarbamoyl)carbonyl]piperidin-3-yl]amino}-1H-pyrazolo[3,4-b]pyridin-4-yl)oxy]-N-(4-methylpyridin-2-yl)benzamide]	> 7.00	6.00 to 7.00	< 5.00	< 5.00
CC(=O)N1CC[C@H](Nc2n[nH]c3nccc(Oc4cccc(C(=O)Nc5ccc(C(C)C)c(C)c5)c4)c23)C1 [compound 124, 3-[(3-{[(3S)-1-acetylpyrrolidin-3-yl]amino}-1H-pyrazolo[3,4-b]pyridin-4-yl)oxy]-N-[3-methyl-4-(propan-2-yl)phenyl]benzamide]	6.00 to 7.00	> 7.00	5.00 to 6.00	5.00 to 6.00
CN(C/C=C/C(=O)N1CCC[C@@H](Nc2n[nH]c3nccc(Oc4ccc(Oc5ccccc5)cc4)c23)C1)C1CC1 [compound 8, (2E)-4-[cyclopropyl(methyl)amino]-1-[(3R)-3-{[4-(4-phenoxyphenoxy)-1H-pyrazolo[3,4-b]pyridin-3-yl]amino}piperidin-1-yl]but-2-en-1-one]	> 7.00	> 7.00	6.00 to 7.00	< 5.00
COCCN(C)C/C=C/C(=O)N1CC[C@@H](Nc2n[nH]c3nccc(Oc4ccc(Oc5ccccc5)cc4)c23)C1 [compound 9, (2E)-4-[(2-methoxyethyl)(methyl)amino]-1-[(3R)-3-{[4-(4-phenoxyphenoxy)-1H-pyrazolo[3,4-b]pyridin-3-yl]amino}pyrrolidin-1-yl]but-2-en-1-one]	> 7.00	> 7.00	> 7.00	< 5.00

Next, values leading:

pIC50 (Btk)	pIC50 (Lck)	pIC50 (EGFR)	pIC50 (JAK3)	Compound
> 7.00	6.00 to 7.00	5.00 to 6.00	< 5.00	Cc1cnc(NC(=O)c2ccc(Oc3ccnc4[nH]nc(N[C@@H]5CCN(C(=O)C6CCN(C)CC6)C5)c34)cc2)s1 [compound 221, N-(5-methyl-1,3-thiazol-2-yl)-4-[(3-{[(3R)-1-(1-methylpiperidine-4-carbonyl)pyrrolidin-3-yl]amino}-1H-pyrazolo[3,4-b]pyridin-4-yl)oxy]benzamide]
6.00 to 7.00	> 7.00	< 5.00	5.00 to 6.00	Cc1cc(NC(=O)c2cccc(Oc3ccnc4[nH]nc(N[C@H]5CCN(C(=O)C6CC6)C5)c34)c2)ccc1C(C)C [compound 125, 3-[(3-{[(3S)-1-cyclopropanecarbonylpyrrolidin-3-yl]amino}-1H-pyrazolo[3,4-b]pyridin-4-yl)oxy]-N-[3-methyl-4-(propan-2-yl)phenyl]benzamide]
> 7.00	6.00 to 7.00	< 5.00	< 5.00	COCCCC(=O)N1CCC[C@@H](Nc2n[nH]c3nccc(Oc4ccc(C(=O)Nc5cc(C)ccn5)cc4)c23)C1 [compound 274, (R)-4-(3-(1-(4-methoxybutanoyl)piperidin-3-ylamino)-1H-pyrazolo[3,4-b]pyridin-4-yloxy)-N-(4-methylpyridin-2-yl)benzamide]
> 7.00	5.00 to 6.00	< 5.00	< 5.00	O=C(Nc1cc(C(F)(F)F)ccn1)c1ccc(Oc2ccnc3[nH]nc(N[C@@H]4CCN(C(=O)C5CC5)C4)c23)cc1 [compound 215, 4-[(3-{[(3R)-1-cyclopropanecarbonylpyrrolidin-3-yl]amino}-1H-pyrazolo[3,4-b]pyridin-4-yl)oxy]-N-[4-(trifluoromethyl)pyridin-2-yl]benzamide]
> 7.00	6.00 to 7.00	5.00 to 6.00	< 5.00	CCNC(=O)N[C@@H]1CCCN(c2n[nH]c3nccc(Oc4ccc(C(=O)Nc5cc(C(F)(F)F)ccn5)cc4)c23)C1 [compound 228, 4-({3-[(3R)-3-[(ethylcarbamoyl)amino]piperidin-1-yl]-1H-pyrazolo[3,4-b]pyridin-4-yl}oxy)-N-[4-(trifluoromethyl)pyridin-2-yl]benzamide]
> 7.00	< 5.00	5.00 to 6.00	6.00 to 7.00	C=CC(=O)N1CCC[C@@H](Nc2n[nH]c3nccc(Oc4ccc(C(=O)Nc5cc(C)n(C)n5)cc4)c23)C1 [compound 159]
